From the NIST ThermoML archive (doi:10.1016/j.jct.2015.07.048)

Key:
[1] = Liquid; for viscosity / electrical conductivity: 100 kPa; for viscosity: Cone and plate viscometry; for electrical conductivity: Direct current cell with electrodes; for mass density: 101.33 kPa, Vibrating tube method
[2] = xn = mol fraction of the nth substance listed; settings: 100 kPa, Liquid, x2 = 0; for viscosity: Cone and plate viscometry; for mass density: Vibrating tube method

CCCn1cc[n+](C)c1.O=S(=O)([N-]S(=O)(=O)C(F)(F)F)C(F)(F)F
[1]
Settings | electrical conductivity [S/m] | mass density [kg/m3] | viscosity [mPa·s]
293.15 K | 0.355 | 1479.32 | 54.19
298.15 K | 0.435 | 1474.24 | 43.94
303.15 K | 0.521 | 1469.4 | 35.92
308.15 K | 0.611 | 1464.43 | 30
313.15 K | 0.71 | 1459.44 | 25.32
318.15 K | 0.813 | 1454.63 | 21.58
323.15 K | 0.923 | 1449.73 | 18.82

O=C1CCCO1 [γ-butyrolactone] + CCCn1cc[n+](C)c1.O=S(=O)([N-]S(=O)(=O)C(F)(F)F)C(F)(F)F
[2]
Settings | mass density [kg/m3] | viscosity [mPa·s]
293.15 K | 1129.2 | 1.92
298.15 K | 1124.26 | 1.73
303.15 K | 1119.33 | 1.63
308.15 K | 1114.31 | 1.52
313.15 K | 1109.23 | 1.42
318.15 K | 1104.1 | 1.35
323.15 K | 1098.88 | 1.3
